{"source": "patent US20230218675A1", "about": "“EXOSOMES ISOLATED FROM DERMAL PAPILLA PROGENITOR CELLS, AND USE THEREOF” (CELLPARK GLOBAL, priority 2020, published 2023)", "tested_on": "human hair follicles", "experiment": "Human hair follicle organ culture, hair follicle length growth evaluation 1", "assay_type": "cell-based", "settings": "for 6 days; exosomes 1.0×10^9 particles, minoxidil 1 μM", "protocol": "In order to evaluate effects of the exosomes of the present invention on human hair follicle growth, a human hair follicle organ culture test (ex vivo hair follicle organ culture) was conducted. More specifically, scalp tissues were isolated into the unit of hair follicles, and the remaining hair follicles were used after cutting the part below the sebaceous gland of the isolated hair follicles. The prepared hair follicles were treated with Examples 1 and 2, and minoxidil as a positive control, respectively, and lengths of the hair growing on the 3rd and 6th days were measured, followed by comparing the measured results to the negative control in order to evaluate a length growth and a growth cycle of human hair follicles. […] The lengths of the hair follicles grown on the 3rd and 6th days of the culture, respectively, were measured using a microscope ruler.", "data": [{"smiles": "Nc1cc(N2CCCCC2)nc(N)[n+]1[O-]", "note": "[minoxidil]", "values": [{"measurement": "growth of hair (hair follicle length)", "result": "about 1.5 mm"}]}]}
